Data set [1] addresses S1P1 receptor (Homo sapiens, UniProt P21453). Put plainly: 35S-GTPyS binding assay. The data set is classed as biochemical. As to conditions: membranes, 90 min at room temperature. The protocol:
The effect of the compounds was measured using a 35S-GTPyS binding assay. Briefly, membranes were incubated in a buffer containing 20 mM HEPES pH 7.4, 100 mM NaCl, 10 mM MgCl2, 10µM GDP, 50µg/ml saponin and 0.2% fatty acid-free BSA at various concentrations (0.1nM-10µM) and 0.1nM 35S-GTPyS. 10µM […] was used as 100% maximum efficacy. The assay was incubated for 90 min at room temperature with gentle mixing, and terminated by filtrating the reaction mixture through GF/C filter plates using the Manifold Filtration System. The filters were immediately washed with sodium phosphate pH 7.4 buffers. After drying the filter plates scintillant liquid were added to each well and 35S-GTPyS binding was measured on a Trilux Scintillation Counter.

Data set [2] is described as follows: Acute hepatotoxicity assay: plasma liver markers (ALT, AST, TBIL) in mice. The data set is classed as in vivo, Swiss mice. As to conditions: for ALT / AST / TBil: plasma, 24 h after single intraperitoneal administration; for hepatotoxicity: single intraperitoneal administration, liver markers 24 h later, compared to vehicle-treated group. As for the experimental part:
Acute hepatotoxicity assays were performed in Swiss mice. Animals received a single administration of either vehicle, or Fingolimod or a compound of the present invention (compounds from the list indicated previously) by intraperitoneal route. Twenty-four hours later, animals were sacrificed and the levels of liver markers ALT (alanine aminotransferase), AST (aspartate aminotransferase), and TBIL (total bilirubin) in plasma were determined. An increase in liver markers in this model indicates the potential of that compound to cause liver toxicity in humans at lower doses following longer exposures. Table 2: Plasma levels of liver markers of mice 24 h after treatment with either vehicle or test compounds No.142, No.171 or fingolimod.

Data set [3] can be described thus: in vivo. As to conditions: Wistar, rat, iv, 1 mg/kg.
Procedure: Rats were administered with 1 mg/kg of test compounds by intraveneous route to Wistar rats. Blood samples were collected from retroorbital plexus at several time points after administration and plasma levels of compounds were quantified by MS-HPLC.
Data set [4] deals with lymphocytes in blood. Put plainly: Recovery of lymphopenia in rats after a single oral administration. Format: in vivo. Conditions: Wistar rats, single oral dose that caused maximal lymphopenia. The protocol:
Test compounds were administered by oral route to Wistar rats at a dose of each compound that caused maximal lymphopenia. At several times after administration, animals were anestesized and blood extracted from retroorbital plexus and collected into heparinized tubes. Total lymphocyte numbers were determined using a Sysmex K-800 haemocytometer. [formula]

Sequence of S1P1 receptor (P21453 whole entry): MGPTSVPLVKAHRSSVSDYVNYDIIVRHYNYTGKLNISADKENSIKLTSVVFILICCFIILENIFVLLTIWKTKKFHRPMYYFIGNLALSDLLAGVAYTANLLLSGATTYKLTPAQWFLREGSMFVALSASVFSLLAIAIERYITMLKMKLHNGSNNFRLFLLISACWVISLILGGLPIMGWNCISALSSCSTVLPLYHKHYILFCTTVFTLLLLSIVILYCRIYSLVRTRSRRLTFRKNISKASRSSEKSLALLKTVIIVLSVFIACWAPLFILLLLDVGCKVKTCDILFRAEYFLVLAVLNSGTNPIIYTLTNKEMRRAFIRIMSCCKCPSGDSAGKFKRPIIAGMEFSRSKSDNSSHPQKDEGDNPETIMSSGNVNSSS

What is called EC50 is the concentration that produces a half-maximal response. A lower EC50 goes with a more potent agent. The term AUC(0-t) denotes exposure summed from dosing to a finite time, without extrapolation to infinity. Low readings indicate low exposure, high ones high exposure. Broadly, the Cmax is the highest concentration seen after dosing. One may read the Tmax as the time at which the peak concentration occurs. A word on the half-life: it is how long it takes for the measured level to halve. A higher half-life goes with slow loss. Consider `Cn1nc(-c2nc(-c3ccc(CCN4CCC(C(=O)O)CC4)c(C(F)(F)F)c3)no2)c2c1CC(C)(C)CC2` [Compound 171, 1-(2-{2-(trifluoromethyl)-4-[5-(1,6,6-trimethyl-4,5,6,7-tetrahydro-1H-indazol-3-yl)-1,2,4-oxadiazol-3-yl]phenyl}ethyl)piperidine-4-carboxylic acid], for which a half-maximal effect in data set [1] (EC50) was put at 18.8 nM. For the same compound, in data set [2] (100 mg/kg), the ALT is listed as 42 ± 13 IU/L, the AST was determined as 66 ± 7 IU/L and the TBil came out at 0.5 ± 0.04 mg/dL. In addition, the hepatotoxicity entry in data set [2] is reported as “lack of hepatotoxicity”. Further, in data set [3], the exposure AUC(0-t) worked out at 6230 ng·h/mL, the Cmax turned out to be 986 ng/mL, the Tmax stood at 6 min and the half-life was 492 min.
In data set [2] (30 mg/kg), `CCCCCCCCc1ccc(CCC(N)(CO)CO)cc1` [Fingolimod, reference compound] came in with an ALT of 59 ± 62 IU/L, an AST of 354 ± 70 IU/L and a TBil of 0.12 ± 0.01 mg/dL. Besides, in data set [2] (100 mg/kg), the ALT is recorded as 355 ± 60 IU/L, the AST is 589 ± 73 IU/L and the TBil is 0.16 ± 0.02 mg/dL. Also, the hepatotoxicity entry in data set [2] is “high hepatotoxicity”. Moreover, the “time after administration to recover lymphocytes in blood” value in data set [4] worked out at 144 h. Also, in data set [3], the AUC(0-t) was determined as 279 ng·h/mL, the Cmax turned out to be 50.5 ng/mL, the time of peak concentration (Tmax) turned out to be 6 min and the half-life was 1570 min.
In turn, `Cc1cc(-c2noc(-c3nn(C)c4c3CCC(C)(C)C4)n2)cc(C)c1CCN1CCC(C(=O)O)CC1` [Compound 142, 1-(2-{2,6-dimethyl-4-[5-(1,6,6-trimethyl-4,5,6,7-tetrahydro-1H-indazol-3-yl)-1,2,4-oxadiazol-3-yl]phenyl}ethyl)piperidine-4-carboxylic acid] gave an EC50 in data set [1] of 8.7 nM. Also, in data set [2] (100 mg/kg), the ALT is 45 ± 5 IU/L, the AST was 87 ± 9 IU/L and the TBil is 0.3 ± 0.1 mg/dL. The hepatotoxicity result in data set [2] is reported as “lack of hepatotoxicity”. Moreover, in data set [3], the AUC(0-t) came to 2630 ng·h/mL, the maximum concentration (Cmax) was found to be 824 ng/mL, the time of peak concentration (Tmax) is 6 min and the half-life is 210 min.

Source of the values: patent publication EP2455080A1, “S1P1 receptor agonists for use in the treatment of multiple sclerosis” (Almirall, S.A., priority 2010, dated 2012).
